Measurements as given in publication PMC5218480 (PLoS ONE, 2017).

Tested on: MV-4-11 cells
Experiment: Gene expression microarray analysis (Affymetrix PrimeView) and GSEA
Type: cell-based, human
Set-up: RFU PODN (11730768_x_at) / Fold change /veh PODN (11730768_x_at) / RFU LINC00158 (11744669_a_at) / Fold change /veh LINC00158 (11744669_a_at) / RFU DUSP10 (11751237_a_at) / Fold change /veh DUSP10 (11751237_a_at) / RFU ID3 (11757404_x_at) / Fold change /veh ID3 (11757404_x_at) / RFU PLEKHG5 (11737974_s_at) / Fold change /veh PLEKHG5 (11737974_s_at) / RFU LRRC4B (11730491_at) / Fold change /veh LRRC4B (11730491_at) / RFU GIMAP4 (11747438_a_at) / Fold change /veh GIMAP4 (11747438_a_at) / RFU KRT8 (11758183_x_at) / Fold change /veh KRT8 (11758183_x_at) / RFU CNN1 (11734310_a_at) / Fold change /veh CNN1 (11734310_a_at) / RFU VPS37D (11726825_at) / Fold change /veh VPS37D (11726825_at) / RFU C10orf10 (11716522_x_at) / Fold change /veh C10orf10 (11716522_x_at) / RFU KIR2DL2 /// KIR2DL4 /// KIR2DL5A /// KIR2DL5B /// KIR2DS1 /// KIR2DS2 /// KIR2DS3 /// KIR2DS4 /// KIR3DL3 /// KIR3DL3 /// KIR3DS1 (11738374_at) / Fold change /veh KIR2DL2 /// KIR2DL4 /// KIR2DL5A /// KIR2DL5B /// KIR2DS1 /// KIR2DS2 /// KIR2DS3 /// KIR2DS4 /// KIR3DL3 /// KIR3DL3 /// KIR3DS1 (11738374_at) / RFU C1QL1 (11718748_at) / Fold change /veh C1QL1 (11718748_at) / RFU TMPRSS4 (11747572_a_at) / Fold change /veh TMPRSS4 (11747572_a_at) / RFU HAMP (11756126_x_at) / Fold change /veh HAMP (11756126_x_at) / RFU RNFT2 (11725882_a_at) / Fold change /veh RNFT2 (11725882_a_at) / RFU NR4A2 (11747474_a_at) / Fold change /veh NR4A2 (11747474_a_at) / RFU ABCC12 (11746883_a_at) / Fold change /veh ABCC12 (11746883_a_at) / RFU TMEM136 (11760407_x_at) / Fold change /veh TMEM136 (11760407_x_at) / RFU CLDN22 /// WWC2 (11732394_at) / Fold change /veh CLDN22 /// WWC2 (11732394_at) / RFU HLA-DPB1 (11760878_x_at) / Fold change /veh HLA-DPB1 (11760878_x_at) / RFU SPINT1 (11716480_a_at) / Fold change /veh SPINT1 (11716480_a_at) / RFU GAP43 (11754022_s_at) / Fold change /veh GAP43 (11754022_s_at) / RFU A4GNT (11735810_at) / Fold change /veh A4GNT (11735810_at) / RFU PRB3 (11715151_x_at) / Fold change /veh PRB3 (11715151_x_at) / RFU TUBB4B (11761932_at) / Fold change /veh TUBB4B (11761932_at) / RFU CAPN14 (11732068_a_at) / Fold change /veh CAPN14 (11732068_a_at) / RFU TMCC2 (11721928_a_at) / Fold change /veh TMCC2 (11721928_a_at) / RFU IRGQ (11745062_a_at) / Fold change /veh IRGQ (11745062_a_at) / RFU FAM174B (11720279_a_at) / Fold change /veh FAM174B (11720279_a_at) / RFU TMPRSS4 (11748680_a_at) / Fold change /veh TMPRSS4 (11748680_a_at) / RFU FAM212B (11763350_a_at) / Fold change /veh FAM212B (11763350_a_at) / RFU PLEKHG5 (11743358_a_at) / Fold change /veh PLEKHG5 (11743358_a_at) / RFU ZSCAN30 (11745921_a_at) / Fold change /veh ZSCAN30 (11745921_a_at) / RFU CMKLR1 (11741424_a_at) / Fold change /veh CMKLR1 (11741424_a_at) / RFU LOC101060620 /// MAPK8IP1 (11723275_at) / Fold change /veh LOC101060620 /// MAPK8IP1 (11723275_at) / RFU SPTSSB (11747773_x_at) / Fold change /veh SPTSSB (11747773_x_at) / RFU PRSS12 (11739890_at) / Fold change /veh PRSS12 (11739890_at) / RFU BIN1 (11741810_x_at) / Fold change /veh BIN1 (11741810_x_at) / RFU WNT11 (11732464_a_at) / Fold change /veh WNT11 (11732464_a_at) / RFU C10orf10 (11716521_a_at) / Fold change /veh C10orf10 (11716521_a_at) / RFU C5orf56 (11738089_at) / Fold change /veh C5orf56 (11738089_at) / RFU CYB561 (11721691_x_at) / Fold change /veh CYB561 (11721691_x_at) / RFU ANKRD19P (11752326_a_at) / Fold change /veh ANKRD19P (11752326_a_at) / RFU OR2T12 /// OR2T33 /// OR2T8 (11738714_s_at) / Fold change /veh OR2T12 /// OR2T33 /// OR2T8 (11738714_s_at) / RFU VCAN (11748164_a_at) / Fold change /veh VCAN (11748164_a_at) / RFU JSRP1 (11732532_at) / Fold change /veh JSRP1 (11732532_at) / RFU KRTAP10-11 (11738290_x_at) / Fold change /veh KRTAP10-11 (11738290_x_at) / RFU MYO3A (11730013_a_at) / Fold change /veh MYO3A (11730013_a_at) / RFU EBF3 (11725865_a_at) / Fold change /veh EBF3 (11725865_a_at) / RFU CAMK2N1 (11719241_x_at) / Fold change /veh CAMK2N1 (11719241_x_at) / RFU C5orf56 (11738088_a_at) / Fold change /veh C5orf56 (11738088_a_at) / RFU OLFML3 (11715873_a_at) / Fold change /veh OLFML3 (11715873_a_at) / RFU LOC100653217 /// NTM (11731650_a_at) / Fold change /veh LOC100653217 /// NTM (11731650_a_at) / RFU MAPK11 (11762145_a_at) / Fold change /veh MAPK11 (11762145_a_at) / RFU FIZ1 (11724087_x_at) / Fold change /veh FIZ1 (11724087_x_at) / RFU OASL (11726364_x_at) / Fold change /veh OASL (11726364_x_at) / RFU SOX15 (11748057_x_at) / Fold change /veh SOX15 (11748057_x_at) / RFU CD79A (11719716_a_at) / Fold change /veh CD79A (11719716_a_at) / RFU HIST1H1D (11736915_at) / Fold change /veh HIST1H1D (11736915_at) / RFU CASKIN2 (11723855_a_at) / Fold change /veh CASKIN2 (11723855_a_at) / RFU LOC730098 (11760151_x_at) / Fold change /veh LOC730098 (11760151_x_at) / RFU OR4N2 (11742367_at) / Fold change /veh OR4N2 (11742367_at) / RFU PRRT2 (11749266_a_at) / Fold change /veh PRRT2 (11749266_a_at) / RFU SNX32 (11753110_a_at) / Fold change /veh SNX32 (11753110_a_at) / RFU CDHR5 (11726645_a_at) / Fold change /veh CDHR5 (11726645_a_at) / RFU RCAN1 (11760418_a_at) / Fold change /veh RCAN1 (11760418_a_at) / RFU FAM167A (11723789_a_at) / Fold change /veh FAM167A (11723789_a_at) / RFU FAM26E (11764081_at) / Fold change /veh FAM26E (11764081_at) / RFU ISYNA1 (11749810_s_at) / Fold change /veh ISYNA1 (11749810_s_at) / RFU ACY1 (11761880_at) / Fold change /veh ACY1 (11761880_at) / RFU 11764098_at / Fold change /veh 11764098_at / RFU SAMD14 (11745864_x_at) / Fold change /veh SAMD14 (11745864_x_at) / RFU NPB (11741838_a_at) / Fold change /veh NPB (11741838_a_at) / RFU TMPRSS6 (11731388_a_at) / Fold change /veh TMPRSS6 (11731388_a_at) / RFU KRTAP10-2 (11738614_at) / Fold change /veh KRTAP10-2 (11738614_at) / RFU ARHGAP8 /// PRR5-ARHGAP8 (11727945_x_at) / Fold change /veh ARHGAP8 /// PRR5-ARHGAP8 (11727945_x_at) / RFU KRTAP5-7 /// NADSYN1 (11734609_at) / Fold change /veh KRTAP5-7 /// NADSYN1 (11734609_at) / RFU RASL12 (11751679_a_at) / Fold change /veh RASL12 (11751679_a_at) / RFU CDKN2B (11736163_a_at) / Fold change /veh CDKN2B (11736163_a_at) / RFU PRF1 (11729649_at) / Fold change /veh PRF1 (11729649_at) / RFU, ZNF638 /// ZNF638-IT1 / Fold change vs veh, ZNF638 /// ZNF638-IT1 / RFU, PANK3 / Fold change vs veh, PANK3 / RFU, SH3YL1 / Fold change vs veh, SH3YL1 / RFU, ZEB2 / Fold change vs veh, ZEB2 / RFU, NRIP1 / Fold change vs veh, NRIP1 / RFU, PTTG1IP / Fold change vs veh, PTTG1IP / RFU, CAPN2 / Fold change vs veh, CAPN2 / RFU, MED14 / Fold change vs veh, MED14 / RFU, SNORA58 / Fold change vs veh, SNORA58 / RFU, C1orf63 / Fold change vs veh, C1orf63 / RFU, LRRFIP1 / Fold change vs veh, LRRFIP1 / RFU, NDUFAF7 / Fold change vs veh, NDUFAF7 / RFU, SLC12A2 / Fold change vs veh, SLC12A2 / RFU, IBTK / Fold change vs veh, IBTK / RFU, ESF1 / Fold change vs veh, ESF1 / Fold change vs veh, TMEM50B / RFU, TAOK1 / Fold change vs veh, TAOK1 / RFU, ACBD3 / Fold change vs veh, ACBD3 / RFU, TMA16 / Fold change vs veh, TMA16 / RFU, RWDD3 / Fold change vs veh, RWDD3 / RFU, BCAT1 / Fold change vs veh, BCAT1 / RFU, EDEM3 / Fold change vs veh, EDEM3 / RFU, TMEM33 / Fold change vs veh, TMEM33 / RFU, WDR75 / Fold change vs veh, WDR75 / RFU, AHCTF1 / Fold change vs veh, AHCTF1 / RFU, TFRC / Fold change vs veh, TFRC / RFU, ZDHHC17 / Fold change vs veh, ZDHHC17 / RFU, NOM1 / Fold change vs veh, NOM1 / RFU, ARL8B / Fold change vs veh, ARL8B / RFU, ZBTB11 / Fold change vs veh, ZBTB11 / RFU, TAMM41 / Fold change vs veh, TAMM41 / RFU, KIAA1704 /// LOC100996395 / Fold change vs veh, KIAA1704 /// LOC100996395 / RFU, ING1 / Fold change vs veh, ING1 / RFU, TRMT61B / Fold change vs veh, TRMT61B / RFU, FUBP3 / Fold change vs veh, FUBP3 / RFU, TP53 / Fold change vs veh, TP53 / RFU, TNKS2 / Fold change vs veh, TNKS2 / RFU, ZFP14 / Fold change vs veh, ZFP14 / RFU, ACTR2 / Fold change vs veh, ACTR2 / RFU, PPP3R1 / Fold change vs veh, PPP3R1 / RFU, PIK3R1 / Fold change vs veh, PIK3R1 / RFU, HNRNPA1 / Fold change vs veh, HNRNPA1 / RFU, RNF170 / Fold change vs veh, RNF170 / RFU, ZNF28 / Fold change vs veh, ZNF28 / RFU, RNGTT / Fold change vs veh, RNGTT / RFU, OGT / Fold change vs veh, OGT / RFU, BRD1 / Fold change vs veh, BRD1 / RFU, MARS / Fold change vs veh, MARS / RFU, ZNF655 / Fold change vs veh, ZNF655 / RFU, FAHD1 / Fold change vs veh, FAHD1 / RFU, BDP1 / Fold change vs veh, BDP1 / RFU, LRRCC1 / Fold change vs veh, LRRCC1 / RFU, ARID1A / Fold change vs veh, ARID1A / RFU, ZNF146 / Fold change vs veh, ZNF146 / RFU, ZNF330 / Fold change vs veh, ZNF330 / RFU, GPN3 / Fold change vs veh, GPN3 / RFU, C9orf123 / Fold change vs veh, C9orf123 / RFU, N4BP2L2 / Fold change vs veh, N4BP2L2 / RFU, ARFIP1 / Fold change vs veh, ARFIP1 / RFU, FAM179B / Fold change vs veh, FAM179B / RFU, BCL10 / Fold change vs veh, BCL10 / RFU, UHRF1BP1L / Fold change vs veh, UHRF1BP1L / RFU, BET1 / Fold change vs veh, BET1 / RFU, CNOT2 / Fold change vs veh, CNOT2 / RFU, ZNF268 / Fold change vs veh, ZNF268 / Fold change vs veh, ZNF507 / RFU, DGCR2 / Fold change vs veh, DGCR2 / RFU, WDSUB1 / Fold change vs veh, WDSUB1 / Fold change vs veh, HSP90B1 /// MIR3652 / RFU, ADSS / Fold change vs veh, ADSS / RFU, GK / Fold change vs veh, GK / RFU, ZNF148 / Fold change vs veh, ZNF148 / RFU, TAF9 / Fold change vs veh, TAF9 / RFU, SLC1A5 / Fold change vs veh, SLC1A5 / RFU, SLMO2 / Fold change vs veh, SLMO2 / RFU, ABCC4 / Fold change vs veh, ABCC4 / RFU, LOC101060439 /// RAP1B / Fold change vs veh, LOC101060439 /// RAP1B / RFU, RFX7 / Fold change vs veh, RFX7 / RFU, GTPBP10 / Fold change vs veh, GTPBP10 / RFU, CNEP1R1 / Fold change vs veh, CNEP1R1 / RFU, BIVM-ERCC5 /// ERCC5 / Fold change vs veh, BIVM-ERCC5 /// ERCC5 / RFU, ILF3 / Fold change vs veh, ILF3 / RFU 11762660_at / Fold change /veh 11762660_at / RFU VCAN (11757783_s_at) / Fold change /veh VCAN (11757783_s_at) / RFU DDX43 (11728927_at) / Fold change /veh DDX43 (11728927_at) / RFU KRT8 (11758188_x_at) / Fold change /veh KRT8 (11758188_x_at) / RFU NKD1 (11759106_at) / Fold change /veh NKD1 (11759106_at) / RFU SRD5A1 (11742802_a_at) / Fold change /veh SRD5A1 (11742802_a_at) / RFU TPSAB1 /// TPSB2 (11721975_s_at) / Fold change /veh TPSAB1 /// TPSB2 (11721975_s_at) / RFU GSTM3 (11746129_a_at) / Fold change /veh GSTM3 (11746129_a_at) / RFU IL23R (11737362_x_at) / Fold change /veh IL23R (11737362_x_at) / RFU TMEM51 (11727254_a_at) / Fold change /veh TMEM51 (11727254_a_at) / RFU PIWIL2 (11732686_x_at) / Fold change /veh PIWIL2 (11732686_x_at) / RFU ORM1 (11744905_x_at) / Fold change /veh ORM1 (11744905_x_at) / RFU CCDC152 (11743942_at) / Fold change /veh CCDC152 (11743942_at) / RFU ECM1 (11717891_a_at) / Fold change /veh ECM1 (11717891_a_at) / RFU IL23R (11748794_a_at) / Fold change /veh IL23R (11748794_a_at) / RFU TNFAIP8L3 (11732012_x_at) / Fold change /veh TNFAIP8L3 (11732012_x_at) / RFU MBOAT4 (11741988_at) / Fold change /veh MBOAT4 (11741988_at) / RFU 11764193_at / Fold change /veh 11764193_at / RFU TMEM53 (11763286_at) / Fold change /veh TMEM53 (11763286_at) / RFU MAGEB2 (11727129_at) / Fold change /veh MAGEB2 (11727129_at) / RFU TMEM200A (11744735_a_at) / Fold change /veh TMEM200A (11744735_a_at) / RFU CCDC152 (11751479_a_at) / Fold change /veh CCDC152 (11751479_a_at) / RFU FAM211A (11726209_a_at) / Fold change /veh FAM211A (11726209_a_at) / RFU RGS16 (11746705_a_at) / Fold change /veh RGS16 (11746705_a_at) / RFU VCAN (11755009_s_at) / Fold change /veh VCAN (11755009_s_at) / RFU RHOB (11743442_s_at) / Fold change /veh RHOB (11743442_s_at) / RFU RGS16 (11720943_a_at) / Fold change /veh RGS16 (11720943_a_at) / RFU RGS16 (11720944_at) / Fold change /veh RGS16 (11720944_at) / RFU, VPS4B / Fold change vs veh, VPS4B / RFU, CREB1 / Fold change vs veh, CREB1 / RFU, DNAJC13 / Fold change vs veh, DNAJC13 / RFU, GNAQ / Fold change vs veh, GNAQ / RFU, CDK5R1 / Fold change vs veh, CDK5R1 / RFU, ZRANB3 / Fold change vs veh, ZRANB3 / RFU, CUL4A / Fold change vs veh, CUL4A / RFU, CCNY / Fold change vs veh, CCNY / RFU, UFL1 / Fold change vs veh, UFL1 / RFU, COG3 / Fold change vs veh, COG3 / RFU, DIAPH2 / Fold change vs veh, DIAPH2 / RFU, SKA2 / Fold change vs veh, SKA2 / RFU, AFF3 / Fold change vs veh, AFF3 / RFU, LMF1 / Fold change vs veh, LMF1 / RFU, IPO11 / Fold change vs veh, IPO11 / RFU, DFFB / Fold change vs veh, DFFB / RFU, FOXP1 / Fold change vs veh, FOXP1 / RFU, CARD8 / Fold change vs veh, CARD8 / RFU, STRN3 / Fold change vs veh, STRN3 / RFU, ADK / Fold change vs veh, ADK / RFU, RASSF2 / Fold change vs veh, RASSF2 / RFU, WIPF1 / Fold change vs veh, WIPF1 / RFU, LARP1B / Fold change vs veh, LARP1B / RFU, RASA1 / Fold change vs veh, RASA1 / RFU, RB1 / Fold change vs veh, RB1 / RFU, PPFIA1 / Fold change vs veh, PPFIA1 / RFU, MAT2A / Fold change vs veh, MAT2A / RFU, CCT5 / Fold change vs veh, CCT5 / RFU, WDR92 / Fold change vs veh, WDR92 / RFU, CUX1 / Fold change vs veh, CUX1 / RFU, TTC7A / Fold change vs veh, TTC7A / RFU, TMEM135 / Fold change vs veh, TMEM135 / RFU, DEPTOR / Fold change vs veh, DEPTOR / RFU, CPM / Fold change vs veh, CPM / RFU, DNAJB6 / Fold change vs veh, DNAJB6 / RFU, CACNA2D3 / Fold change vs veh, CACNA2D3 / RFU, DTX4 / Fold change vs veh, DTX4 / RFU, TFCP2 / Fold change vs veh, TFCP2 / RFU, GMCL1 /// GMCL1P1 / Fold change vs veh, GMCL1 /// GMCL1P1 / RFU, AEBP2 / Fold change vs veh, AEBP2 / RFU, SNHG1 /// SNORD22 /// SNORD25 /// SNORD26 /// SNORD27 /// SNORD28 /// SNORD29 /// SNORD31 / Fold change vs veh, SNHG1 /// SNORD22 /// SNORD25 /// SNORD26 /// SNORD27 /// SNORD28 /// SNORD29 /// SNORD31 / Fold change (Aza/veh), C12orf56 (ProbeSet 11735607_a_at) / Fold change (ACY-1035/veh), C12orf56 (ProbeSet 11735607_a_at) / Fold change (Aza/veh), FGFR1OP (ProbeSet 11751329_s_at) / Fold change (ACY-1035/veh), FGFR1OP (ProbeSet 11751329_s_at) / Fold change (Aza/veh), VPS36 (ProbeSet 11739960_a_at) / Fold change (ACY-1035/veh), VPS36 (ProbeSet 11739960_a_at) / RFU SYPL1 (11715823_x_at) / Fold change /veh SYPL1 (11715823_x_at) / RFU IGFBP7 (11715501_s_at) / Fold change /veh IGFBP7 (11715501_s_at) / RFU REEP3 (11722064_at) / Fold change /veh REEP3 (11722064_at) / RFU IGLL1 (11728026_x_at) / Fold change /veh IGLL1 (11728026_x_at): dose or concentration left out as unconfirmed
Settings: ProbeSet 11755159_a_at; LIST D

Nc1ncn([C@@H]2O[C@H](CO)[C@@H](O)[C@H]2O)c(=O)n1 [azacitidine]
Fold change vs veh, COG3: 0.82
